What was measured:
[1] = biological target: T1, TSPO from rat cerebral cortex (Rattus norvegicus, UniProt P16257); assay: 3H-PK11195 equilibrium binding in presence of koumine
T1 construct: from tissue; host or cells: rat (SD) cerebral cortex, crude mitochondrial/membrane pellet
Experimental: (§1) Briefly, male SD rats (240 ± 10 g) were killed by decapitation, and the cerebral cortices were dissected. The tissues were homogenized in 10 volumes (ml/g) of 50 mM Tris HCl buffer containing 0.32 M sucrose (pH 7.4). The homogenates were centrifuged at 1,000 g for 10 min at 4°C. The resulting pellets were discarded, and the supernatants were centrifuged at 9,000 g for 15 min. The pellets were resuspended in 10 volumes of Tris HCl buffer containing 0.32 M sucrose (pH 7.4) and centrifuged at 13,000 g for 30 min, then resuspended in 10 volumes of Tris HCl buffer and centrifuged again at 13,000 g for 30 min. The final pellets were suspended in Tris HCl buffer and used in the binding assays. Protein concentrations were measured using the BCA Protein Assay Kit (ThermoFisher Scientific) according to the manufacturer’s instructions.
After incubation at 4°C for 2 h, the reaction was terminated by the addition of ice-cold 50 mM Tris HCl buffer (pH 7.4) followed by vacuum filtration through Filtermat A glass microfiber filters (pretreated with 0.2% polyethylenimine) using a Brandel cell harvester. The filters were washed rapidly, and radioactivity was determined by liquid scintillation spectrometry.

[2] = biological target: T1, TSPO from rat cerebral cortex; assay: 3H-PK11195 dissociation kinetics; format: binding
Experimental: as §1
Then, samples were filtered through Filtermat A glass microfiber filters (pretreated with 0.2% polyethylenimine) using a Brandel cell harvester, and the radioactivities were measured at the indicated time points.

TSPO = biological target: TSPO; design: method as in Awad and Gavish, 1987; Verma et al., 1987; conditions: radioligand binding experiment results from literatures, ref Awad and Gavish, 1987, Verma et al.; cited from earlier work

T1 sequence (P16257 whole entry): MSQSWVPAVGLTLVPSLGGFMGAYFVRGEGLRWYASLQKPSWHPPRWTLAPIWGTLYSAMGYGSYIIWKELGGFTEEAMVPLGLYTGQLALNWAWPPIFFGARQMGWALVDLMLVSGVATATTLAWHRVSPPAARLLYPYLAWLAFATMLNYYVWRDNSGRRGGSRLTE

| Compound | effect on binding of 0.1 nM 3H-PK11195 ([1]; 10^−10 M and 10^−6 M koumine only) | effect on binding of 0.1 nM 3H-PK11195 ([1]; all concentrations of koumine, 10^−12–10^−3 M, not dose dependent) | dissociation rate of 3H-PK11195 relative to vehicle group ([2]; in presence of 10^−6 M koumine) [%] | dissociation rate of 3H-PK11195 relative to vehicle group ([2]; in presence of 10^−10 M koumine) [%] | Kd (TSPO) [nM] |
| --- | --- | --- | --- | --- | --- |
| C=C[C@@]12CN(C)[C@H]3C[C@]14C(=Nc1ccccc14)[C@H]1C[C@@H]2[C@@H]3CO1 [koumine] | significantly increased the binding | tended to increase the binding | 72 | 81 | – |
| CN1C(=O)CN=C(c2ccc(Cl)cc2)c2cc(Cl)ccc21 [Ro5-4864, reference compound] | – | – | – | – | 7.3 ± 0.8 |
